Source: US20240024273A1, “TOPICAL ADMINISTRATION OF 2-(DIETHYLAMINO)ETHYL 2-(4-ISOBUTYLPHENYL)PROPRIONATE FOR TREATMENT OF DISEASES” (TECHFIELDS PHARMA CO., LTD., priority 2020, published 2024)

Tested on: Subjects with Osteoarthritis of the Knee
Test: Second Phase 2 study: safety (treatment-emergent adverse events)
Format: in vivo, human
Details: Oral Ibuprofen 3 × 400 mg, N = 71
Source text: Safety assessments will be performed at each visit and will include assessment of AEs, vital signs (blood pressure, pulse rate, and oral temperature), clinical laboratories, physical examination, skin irritation, and electrocardiograms (ECGs) as indicated in the study flow chart, Table 47.
Safety assessments will include AEs, vital signs (blood pressures, pulse rate, and oral temperature), clinical laboratories, physical examination, skin irritation, and ECGs at various time points during the study as indicated in the study flow chart.
Adverse events of interest include: local skin reactions around the treated knee(s), upper stomach pain, GI bleeding, serious cardiovascular side effects (e.g., thrombotic events, myocardial infarction, or stroke), jaundice, elevated liver function tests, and nausea.
Safety analyses will be conducted on the SAS. Safety parameters will be listed and summarized using standard descriptive statistics, as appropriate. No formal statistical analyses are planned.

## CC(C)Cc1ccc(C(C)C(=O)O)cc1 (stereo not shown) [Ibuprofen, 2-(4-isobutylphenyl)propionic acid, reference compound]
  Infections and Infestations: number of adverse events: 32
  Metabolism and Nutrition Disorders: number of adverse events: 8
  Metabolism and Nutrition Disorders: percentage of subjects with adverse events: 11.3%
  Metabolism and Nutrition Disorders: subjects with adverse events: 8
  Tooth Infection: number of adverse events: 3
  Urinary Tract Infection: number of adverse events: 11
  Urinary Tract Infection: subjects with adverse events, number (percentage): 10(14.1%)
